Measurements: a melting point compilation (Tetko et al.; mined from patent text by program, amines drawn as free bases though some values may be those of a salt)

melting point	Compound
105 to 106 °C	O=S(=O)(c1cccc2c(Cl)cccc12)N1CC2CCC(CC2)C1
170 to 171 °C	O=C(O)c1sc(Cl)nc1-c1ccccc1
149 to 151 °C	O=C(O)CCCC(=O)c1cc2c(=O)c3ccccc3ccc2s1
45 to 50 °C	CC(C)(C)c1ccc([C@H]2CCCN2[S@@](=O)C(C)(C)C)cc1
85 to 86 °C	CCOC(=O)CC(O)CC(O)C=Cc1c(-c2ccccc2)ccnc1C (stereo unspecified)
92 to 94 °C	CCOC(=O)CCCN(C(=O)c1ccc(Cl)cc1)c1cccc2ccc(OC)cc12
262 °C	Cc1ccc2[nH]c(C(=O)O)cc2c1O
143 to 145 °C	CCN1c2ncc(CCc3cccc(I)c3)cc2C(=O)N(C)c2ccc(Cl)nc21
162 to 164 °C	O=C1N(Cc2ccc(C(F)(F)F)o2)c2ccccc2C12COc1cc3c(cc12)OCCCO3 (stereo unspecified)
119 to 120 °C	COc1ccc(-c2cc(=O)n(Cc3ccc(Cl)cc3Cl)nc2-c2ccc(OC)c(OC)c2)cc1
200 to 201 °C	CCn1c(=O)c2c(nc(/C=C/c3ccc(-c4ccccc4)cc3)n2C)n(CC)c1=O
> 250 °C	COc1cc(Nc2c(C#N)cnc3cc(-c4ccc(C=O)o4)ccc23)c(Cl)cc1Cl
70 to 75 °C	COc1cccc(CNc2nccc(-c3cc(N4CCN(CCCN(C)C)CC4)c4cc(OC)ccc4c3)n2)c1
113 to 114 °C	Cc1c(C(=O)O)ccc(S(C)(=O)=O)c1N(C)C
55 to 57 °C	CCCCCCC(Oc1ccc(C2=CCCCCCC2)cc1)C(=O)O (stereo unspecified)
139 to 142 °C	N#CC(c1ccccc1)(c1ccccc1)C1CCCN(CCc2ccc(Cl)c(Cl)c2)C1 (stereo unspecified)
172 to 174 °C	Cc1nc(Sc2ncccc2CC(=O)O)sc1CC(=O)O
293 to 296 °C	COC(=O)c1cnc2c3cc(NS(C)(=O)=O)ccc3ncn2c1=O
74.5 to 76 °C	COc1ccc(C[C@H](C)NS(=O)(=O)c2ccccc2)cc1
209 to 210 °C	O=C(Nc1ccc(S(=O)(=O)c2ncccn2)cc1)C(O)(C(F)F)C(F)F
102 to 104 °C	CCOC(=O)C1CCN(c2nnc(-c3ccc(C)cc3)c(-c3ccc(C)cc3)n2)CC1
160 to 162 °C	NC1=NS(=O)N=C1NCCCN(Cc1cccc(F)c1)c1ccccn1 (stereo unspecified)
183 to 186 °C	N#CSc1nc(I)ncc1Cl
157 to 158 °C	CC(C)c1ccc(C2C(=O)Oc3ccc(Br)cc32)cc1 (stereo unspecified)

melting point	Compound
116 to 119 °C	CON1CCC(CC2NC(=O)C(c3cc(C)ccc3C)=C2O)CC1 (stereo unspecified)
250 to 251 °C	CC(C)(C)c1ccc(-c2csc(-c3cccc(C(=O)O)c3)n2)cc1
82 to 84 °C	CCOC(=O)CC[C@H](NC(=O)OCc1ccccc1)C(=O)O
> 320 °C	C=CCOc1ccc(-c2cc3[nH]c4c(c(=O)n3n2)CN(C2CCCCC2)C4=O)cc1
149 to 151 °C	COc1ccc(N2CCN(c3c(C)c(C(C)O)c4c(c3C)C(c3ccc(C)cc3)C(C)(C)O4)CC2)cc1 (stereo unspecified)
71 to 72 °C	CC(C)(C)OC(=O)N1CCCCN1C(=O)OCc1ccccc1
78.5 to 80 °C	CCC1SC(NC)=NN1C(=O)C(C)(C)C (stereo unspecified)
138 to 140 °C	O=C1NC(=O)C(c2cccs2)O1 (stereo unspecified)
110 to 112 °C	CCCc1ccc(-n2ncc(C#N)c2N(C(C)=O)C(C)=O)c(Cl)c1
40 to 48 °C	Nc1[nH]ncc1-c1cccc(N2CCN(CCO)CC2)c1
184 to 185 °C	CCCCc1nc2c(N)nc3cccnc3c2n1CCNC(=O)C(CC(C)C)NC(=O)OC(C)(C)C (stereo unspecified)
86 °C	O=C1Cc2ccccc2Oc2ccccc2C1
151 to 153 °C	Cc1nc2c(OCc3ccccc3)cc(Br)cn2c1C
83 to 85 °C	CCOC(=O)c1ccc(OC(F)F)cc1SC
174 to 176 °C	C=Cc1ccc(NN2C(=O)c3ccccc3C2=O)cc1
97 to 98 °C	COC(=O)c1cccc(CN2C(=O)C3(COc4cc5c(cc43)CCO5)c3ccccc32)c1 (stereo unspecified)
291 to 292 °C	O=c1[nH]c2cc3c(cc2nc1-c1ccccc1)OC(F)(F)O3
160 to 164 °C	COc1ccc(N/C(SC)=C(\C#N)C(N)=O)cc1O
189 to 192 °C	N#Cc1ccc(-c2ccc(-c3ccn([C@H](CC(=O)O)C(=O)N[C@H](CO)Cc4ccccc4)c3)cc2)cc1
168 °C	Cc1cccc(NC(=O)NCC(=O)N2[C@@H](C(=O)OC(C)(C)C)C[C@H](CO)[C@H]2c2ccccc2)c1 (racemic)
171 °C	O=C(Nc1ccc(-c2ccc(C(=O)N3CCN4CCC3CC4)o2)cc1)Nc1cccc(C(F)(F)F)c1
127 to 130 °C	O=C(O)CN1C(=O)[C@@H](N[C@@H](CCc2ccccc2)C(=O)O)COc2ccccc21
117 to 119 °C	Cc1cccc(NC(=O)NC2CN(C(=O)NC3CCCCC3)c3ccccc3N(CC(=O)c3ccccc3C)C2=O)c1 (stereo unspecified)
265 to 268 °C	CC(C)(C)c1ccc2c(c1)CCC1=C2CCC(=O)N1

melting point	Compound
149 to 151 °C	COc1cc(C=C(C=O)C(C=O)=Cc2ccc(OC(C)=O)c(OC)c2)ccc1OC(C)=O
79.5 °C	CC(C)CNC(=O)NCCCl
104 °C	Nc1ccc2[nH]nc(-c3ccccc3)c2c1
154 °C	Cc1cc(C)cc(N(CCCC(N)=O)Cc2ccc3nc(NCCCN4CCOCC4)n(Cc4cccc5cccnc45)c3c2)c1
172 °C	CN1CCC(=C2c3ccccc3CCn3cc(-c4ccccc4)nc32)CC1
147 °C	CP(C)(=O)C(O)C(=O)OCC(=O)c1ccccc1 (stereo unspecified)
163 °C	Clc1cc2c(cc1Cn1ccnc1-c1ccccc1)OCO2
93 to 94 °C	CCOC(=O)C(CC)(CC)CCS(N)(=O)=O
157 to 159 °C	COC(=O)CSc1nc(Sc2ccc(Cl)cc2)ncc1[N+](=O)[O-]
177 to 179 °C	CCCCCCNc1ccc(Oc2ccc3nc(COc4ccc(CC5SC(=O)NC5=O)cc4)n(C)c3c2)cc1 (stereo unspecified)
185 to 187 °C	CCOc1nc2cc(N)ccc2c(=O)o1
177 °C	CCOC(=O)C1=C(COCCNc2nc(C(C)=O)c[nH]2)NC(C)=C(C(=O)OC)C1c1cccc(Cl)c1Cl (stereo unspecified)
175 to 181 °C	COC(=O)c1ccccc1S(=O)(=O)NC(=O)Nc1nc(CSc2ccccn2)cc(OC)n1
254 to 272 °C	CN(C)c1cc2c(=O)n(NS(C)(=O)=O)c(=O)[nH]c2cc1C(F)(F)F
159 to 162 °C	C=CCN(CC=C)c1nc(NC(=O)c2ccco2)n2oc(=O)nc2n1
136 to 138 °C	COC(=O)C(Oc1cc(OCc2ccnnc2)ccc1C#N)c1ccccc1Cl (racemic)
156 °C	CCN1Cc2cccc3scc(c23)S1(=O)=O
92 to 93 °C	COc1cc2c(cc1OC)CCN(CCCN(C)C1CCc3cc(OC)c(OC)cc3C1)CC2 (stereo unspecified)
270 to 272 °C	Cc1cnc2nc(C(F)(F)F)[nH]c(=O)c2c1
92.5 to 94.5 °C	COC(=O)CS(=O)(=O)CCCCCCn1nc(-c2ccccc2)c(-c2ccccc2)c1-c1ccccc1
259 to 261 °C	CC(=O)Nc1nc2c(Oc3cc(-c4ccc(C(F)(F)F)cc4NC(C)=O)ncn3)cccc2s1
85 °C	O=C/C=C/c1ccc2ccccc2n1
105 °C	COc1cc(Cl)c(Cl)cc1Oc1ccc(Cl)cc1
252 to 253 °C	CCOC(=O)c1cn(-c2ccc(F)cc2)c2cc(-c3ccncc3)ccc2c1=O

melting point	Compound
90 to 93 °C	CC(C)Nc1cccnc1N1CCN(C(=O)c2ccc(C(=O)NC(CO)CO)cn2)CC1
198 to 202 °C	CC1(C)Oc2ccc(Cl)cc2C(NS(C)(=O)=O)C1O (stereo unspecified)
191 to 192 °C	Nc1ccccc1-c1n[nH]c(=S)n1N
210 to 212 °C	NC(=O)C1CCN(c2ccncc2Cl)CC1
103 to 106 °C	CCOC(=O)c1cc(-n2c(=O)c3c(n(COC)c2=O)CCC3)ccc1Cl
73 to 74 °C	COc1cc(I)cc(OC)c1
298 to 300 °C	CCOCCn1cc2c(C3C(=O)Nc4ccc(Br)cc43)nc(NCC(C)O)nc2n1 (stereo unspecified)
167 to 168 °C	O=c1c2cccnc2c(-c2cccc([N+](=O)[O-])c2)nn1Cc1ccncc1
130 to 131 °C	Cc1c(C)c2c(c(C)c1NC=O)CC(C)(CSc1ccccc1)O2 (stereo unspecified)
113 to 114 °C	CC(C)CCCC(C)C1CC=C2C3=C(CCC21C)C1(C)CCC(O)CC1CC3 (stereo unspecified)
157 to 158 °C	COc1ccccc1Nc1cc(-c2c(-c3cccc(C)c3)nc3cccnn23)ccn1
180 to 183 °C	Cc1noc(NS(=O)(=O)c2sccc2Cc2ccccc2)c1Br
78 to 80 °C	CC(C)C1c2ccc(F)cc2CCC1(O)CCO (stereo unspecified)
172 to 173 °C	COCCc1nc2c(N)nc3c(c2n1CCCNC(=O)N1CCOCC1)CCCC3
98 to 104 °C	Cc1ccc([N+](=O)[O-])c(-c2nc(C(F)(F)F)cs2)c1
80 °C	OC1Cc2cccc(Br)c2C1 (stereo unspecified)
160 to 162 °C	OCC(O)Cc1c(OCc2ccccc2)ccc2ncccc12 (stereo unspecified)
56 to 57 °C	CCCCCCCCCCCCCCCCn1cccc1C1=CC(=O)c2ccccc2C1=O
137 to 139 °C	CN1C(=O)C2CC2(c2ccc(N)cc2)C1=O (stereo unspecified)
91 to 92 °C	CN(C)c1ccc(CSC2=NC(C)(C)C(SCc3ccc(N(C)C)cc3)=N2)cc1
288 to 289 °C	CC(C)(C)C(=O)Nc1ccc(SSc2ccc(NC(=O)C(C)(C)C)cc2C(N)=O)c(C(N)=O)c1
64 to 66 °C	COc1c(Cl)ccnc1CO
197 to 198 °C	CCOc1cc2c(cc1S(=O)(=O)c1ccccc1)[C@@H](N1CCCC1=O)[C@H](O)C(C)(C)O2 (relative stereo)

Compound	melting point
CNC(=O)N1N=C(c2ccc([N+](=O)[O-])c(C)c2)c2cc3c(cc2CC1C)OCO3 (stereo unspecified)	221 to 229 °C
Oc1cccc2c1Oc1ccccc1C21CCN(CC=CCl)CC1	153 to 155 °C
Cc1cc2[nH]ncc2cc1NC1=NCCS1	218 to 221 °C
COP(=O)(NNC(C)(C)C)OC	61 to 68 °C
CC(C)(C)Cc1cc(C2(N)CC2)no1	39 to 47 °C
CC(C)CN1C(=O)[C@@H](CC(=O)O)N=C(c2ccccc2Cl)c2cc(Cl)ccc21	175 to 178 °C
